According to US20240226342A1, “REACTIVE OXYGEN SPECIES IMAGING AGENTS” (Washington University, priority 2022, published 2024):
“Also recorded” adds a separate entry of the source. Like-named read-outs stand apart in the source and are kept apart here. One block for each molecule: values may come before it.

How the values were obtained:
[1] = tested on: reactive oxygen species (superoxide, hydroxyl radical); assay: Detection of reactive oxygen species in vitro, fluorescence plate reader assay (G-GO, X-XO, SIN-1 systems); assay type: biochemical
Experimental: FIG. 3 is a bar graph showing evaluation of SLN128 for detection of reactive oxygen species in vitro in accordance with the present disclosure. Data are shown as mean fluorescence intensity (arbitrary units)±SD, where ****p<0.0001 values are determined by an unpaired student t-test. (Abbreviations: G: Glucose; GOX: Glucose oxidase; HRP: Horseradish peroxidase; X: Xanthine; XO: Xanthine oxidase; SOD: Superoxide Dismutase; CAT: Catalase. All values are normalized to fluorescence output of untreated SLN128 (control). Please note response to HRP induced hydroxyl radical in GGO system, its mitigation with CAT; and response to HX-XO (superoxide) and its intervention with SOD.
Of note, superoxide can originate from numerous sources in vivo, including the mitochondrial electron transport chain and NADPH oxidase(s), which are activated under conditions of inflammation, ischemia, and tissue injury. […] Therefore, the ability to detect elevated ROS in patients could provide a better understanding of relationships between ROS, tissue injury, and disease staging including information on signaling cascade that promote inflammation. To measure ROS production, various methods that use colorimetry, chemiluminescence, and fluorescence have been deployed, While xanthine-xanthine oxidase (X-XO) and SIN-1 have been used for production of superoxide and nitric oxide (wherein the combination produces peroxynitrite), respectively, the glucose-glucose oxidase (G-GO) system is useful for production of hydrogen peroxide. Employing concentrations of SLN128 and G-GO, and X-XO in vitro conditions described previously, the ability of SLN-128 or 12 to detect different reactive oxygen species at 37° C. in PBS was evaluated under physiological conditions (pH 7.2) and normalized by background fluorescence output of untreated SLN128 as a control using a fluorescence plate reader assay (see e.g., FIG. 3). […] Under both conditions, oxidation of the probe was neutralized by the addition of superoxide dismutase (SOD) (see e.g., FIG. 3). […] (see e.g., FIG. 3).

[2] = Fluorescence emission of the probe before and after oxidation; assay type: physicochemical
[3] = tested on: human glioblastoma U87 cells; assay: Live-cell fluorescence imaging of cellular accumulation in U87 cells; assay type: cell-based; conditions: for intracellular localization: U87 cells, 100× objective, with mitotracker / mitoSOX
Experimental: FIG. 4 includes images showing cellular accumulation of SLN128 (20 nM) in human glioblastoma (U87) cells using live-cell fluorescence imaging: intracellular localization in accordance with the present disclosure. SLN128 was incubated at 37° C. for 1 h with either mitotracker red/or mitoSOX Deep Red in human U87MG cells. Images were acquired using a 100×objective.
FIG. 5 includes images showing cellular accumulation of SLN128 (20 nM) in human glioblastoma (U87) cells using live-cell fluorescence imaging in accordance with the present disclosure. SLN128 was incubated for 1 h either with media (control), LPS treated (1 μg/mL; 3 h) or 3-nitropropionic acid (3-NP; 10 μg/mL) human U87MG cells: Images were acquired using a 20×objective.
FIG. 6 is a bar graph showing cellular accumulation of SLN128 in either serum and glucose deprived- or LPS or 3 NP-treated U87 cells in either presence or absence of resveratrol (10 μM) in accordance with the present disclosure. Images were acquired using a 20×objective (all panels represent same magnification) in live human U87 cells. While U87 control cells were plated under normal conditions, both serum-and glucose-deprived (Starvation), and LPS/3-NP treated cells were allowed to recover in presence of resveratrol) for 24 h and treated with SLN-128(20 nM) for 60 min, cell uptake was evaluated via live-cell imaging, and quantified as described earlier. Corrected Total Cell Fluorescence (CTCF)=Integrated Density-(Area of selected cell X Mean fluorescence of background readings); (mean±SD), where **p<0.01 and […] are determined by an unpaired student t-test.
Lipopolysaccharide (LPS), is an endotoxin, released from Gram-negative bacteria. Next, the ability of SLN128 to detect either LPS or 3-Nitropropionic acid (3-NP) induced ROS in human cells was evaluated through live-cell fluorescence imaging. LPS is detected by toll-like receptor 4 (TLR4), a broadly expressed pattern recognition receptor found both on different cell types, including glial cells, and neurons. TLR4 engagement triggers the generation of mitochondrial superoxide from electron transport complex I, which in turn promotes bacterial killing. LPS treatment also triggers increased cytokine and chemokine expression in brain thus driving inflammation. […] To this end, intracellular localization of SLN-128 in either the presence or absence of mitotracker deep red (control) was simulataneously assessed in either the LPS or 3-NP stimulated human glioblastoma U87 cells (see e.g., FIG. 4). […] The probe uptake was quantified as corrected total cell fluorescence (CTCF) using image J as described earlier. […] Uptake in brain and other critical organs was analyzed in terms of percent injected dose per gram of the tissue (% ID/g).

[4] = tested on: microglial cells and neurons in brain sections; assay: Ex vivo fluorescence of brain sections after tail-vein injection of unlabeled SLN128 into 3-NP treated mice; assay type: in vivo; conditions: anti-IBA1 and anti-NeuN
Experimental: FIG. 11 includes images showing post PET/CT imaging in accordance with the present disclosure. SLN128 (100 μL; 1 mg/mL) was injected through tail-vein into 3NP-or saline treated mice, and brain tissue was processed as described in FIG. 10A-FIG. 10D.
Systemic administration of LPS induces oxidative stress and resulting a release of inflammatory cytokines, sustained microglial activation, and neuronal cell loss in brain areas, such as the hippocampus, cerebral cortex, substantia nigra, ventral tegmental area, and thalamus, alters the levels of neurotransmitters in adult animals, and cerebellum. Thus LPS-induced inflammation provides a useful rodent model for preclinical imaging of ^18F-SLN-128. […] Finally, the brain uptake (see e.g., FIG. 9C) derived from PET imaging also correlated with 60 min post imaging quantified uptake (see e.g., FIG. 9D) indicating potential of the radiotracer for imaging endotoxin mediated brain inflammation in vivo. Mitochondrial dysfunction is a major event in the pathogenesis of Huntington disease (HD). It has also been reported that systemic 3-NP administration leads to oxidized proteins in the striatum, as well as a massive loss of striatal neurons. To evaluate potential of ^18F-SLN-128 PET imaging for 3NP-induced ROS-mediated neurodegeneration in mice, PET/CT imaging was performed.

[5] = normal mice, cited from earlier work
[6] = PBS with 1.0% ethanol, excited with a 402 nm laser

broad emission peak [2, 6]: 520-540 nm
emission maximum [2, 6]: 530 nm
enhancement of mean fluorescence intensity following oxidation ([2]; following its oxidation): 4 fold
Compound: COc1ccc2c(c1)N(C)C(c1ccc(O)c(OCCF)c1)c1cccn1-2 (stereo not shown) [SLN128]
reactive oxygen species detected [1]: both superoxide and hydroxyl radical
fluorescence response in G-GO system ([1]; 37° C., PBS pH 7.2): only a slight increase in fluorescence
response to HRP in G-GO system (hydroxyl radical) ([1]; 37° C., PBS pH 7.2, normalized to untreated SLN128): 10 fold
detection of superoxide ([1]; xanthine oxidase/xanthine or SIN-1 with CPTIO, neutralized by SOD): ability to detect superoxide
fluorescence in LPS- or 3-NP stimulated cells compared to untreated U87 cells ([3]; LPS or 3-NP stimulation): higher fluorescence
intracellular localization [3]: penetrates into mitochondria of U87 cells
intracellular localization ([3]; listed as SLN 128): maps both mitotracker and mitoSOX
monitoring of therapeutic effect (CTCF) ([3]; presence or absence of resveratrol): ability to monitor resveratrol-induced mitigation of ROS
localization in brain sections ex vivo [4]: localizes in microglial cells and neurons; also recorded: maps markers for microglial and neuronal cells

Compound: CNc1ccc(/C=C/c2ccc(OCCOCCOCC[18F])nc2)cc1 [[^18F]-AVID-45, [^18F]-Florbetapir]
brain uptake ([5]; 2 min): 7.33±1.54 % ID/g
brain uptake ([5]; 2 h): 1.80±0.07 % ID/g
brain uptake ratio 2 min/2 h [5]: 4.07

Compound: CNc1ccc(/C=C/c2ccc(OCCOCCOCC[18F])cc2)cc1 [[^18F]-Florbetaben]
brain uptake ([5]; 2 min): 4.77 % ID/g
brain uptake ([5]; 4 h): 0.95 % ID/g
brain uptake ratio 2 min/4 h [5]: 5.0

Compound: COCOc1ccc(-c2c3cccn3c3ccc(OC)cc3[n+]2C)cc1OCCF.[I-] [compound 15]
emission shift following oxidation ([2]; oxidized form): 580 nm
